Assays:
RPE from mouse eyecups = assay: Ex vivo mouse eyecup autophagy induction (LC3II/LC3I ratio); conditions: 24 hours
Method: FIG. 14. Effect of autophagy positive control Torin on RPE from mouse eyecups (DMSO as control). […] Mouse eyes were enucleated, the anterior segment vitreous, and retina were removed, leaving an eyecup with RPE/choroid exposed. […] RPE/Choroid eyecup was treated with 1 uM Torin1 in our previously established RPE cell culture media for 24 hours. n=4.
FIG. 15. Effect of Flubendazole on RPE from Mouse Eyecups (DMSO as control). Conditions with and without ammonium chloride (NH4Cl) help establish high autophagy flux rates. If true autophagy flux is happening, the LC3II/LC3I ratio should increase further upon addition of NH4Cl, as is the case here. DMSO− and FLBZ−, n=6, FLBZ+ and DMSO+ n=5. Flubendazole tested at 60 uM, lysates collected after 24 hours. Induction did occur in eyecups.
Given the inconsistent results with detecting autophagy induction using intravitreal injection of the positive control, Torin, experiments were conducted to determine whether the lack of responsiveness to intravitreal injections was a drug access issue or whether it was a species or animal vs. culture difference. Additional experiments utilized freshly isolated mouse eyecups with the retina removed to determine whether Torin (and FLBZ) induce autophagy in this context. […] The use of ammonium chloride in these experiments blocks lysosomal degradation.

[1] = system: primary human fetal RPE (hfRPE) culture; assay: Autophagy flux assay with NH4Cl lysosomal alkalinization; type: cell-based; conditions: inducer 22.5 hours, then 25 mM NH4Cl for final 1.5 hours
Method: Cultures were exposed to compounds or vehicle (DMSO) for 24 hours. […] (C) Autophagy flux assays. After application of inducers or vehicle (DMSO) for 22.5 hours, 25 mM of NH4Cl, a lysosomal alkalizing agent, or H2O were added for a final 1.5 hours to inhibit autophagy flux.
Increases in both LC3 lipidation and autophagosome formation could result from downstream blockade of autophagy at the lysosome.

[2] = system: primary human fetal RPE (hfRPE) culture; assay: Autophagy induction by LC3 lipidation (LC3-II/LC3-I ratio) on Western blot; type: cell-based; conditions: 24 hours exposure, vs vehicle (DMSO)
Method: (§1) Cell cultures were exposed to each putative autophagy inducer at a concentration indicated in Table 1 for 24 hours, lysed with 36 μL of SDS sample buffer with β-mercaptoethanol, with 15 μg of lysate loaded on a 4-15% gradient gel followed by transfer to a PVDF membrane. Blots were incubated with 1:1000 of LC3A/B antibody (Cell Signaling Technology; #4108s, RRID:AB_2137703) overnight. Quantifying LC3-II/LC3-I ratio is a well-accepted method for det 306 ermining autophagy induction [Ref. 44; incorporated by reference in its entirety], and this ratio was quantified in a non-saturated, linear range using the Azure c500 Imaging System (Azure Biosystems, Dublin, CA, USA) and a combination of AzureSpot and ImageJ software. The data in FIG. 2A are not normalized, whereas the data in FIGS. 2b and 1c are normalized to the average combined value of the vehicle and drug groups within each experimental repeat. The extreme pigmentation of human fetal cultures, combined with the destruction of the LC3 epitope with melanin bleaching protocols, makes detection of LC3 by microscopy in hfRPE difficult. A range of LC3 staining and puncta quantification protocols specifically adapted to pigmented hfRPE culture were employed [Ref. 43; incorporated by reference in its entirety]. At least five fields of view were randomly chosen and analyzed per experimental replicate for LC3 immunocytochemistry.
To test for autophagy induction, lipidation of the core autophagy protein LC3 was measured by mobility shift on Western blots 24 hours after each compound was added to hfRPE cultures [Ref. 44; incorporated by reference in its entirety]. […] Of the more than 30 putative autophagy inducers tested, only five produced an increased ratio of LC3-II/LC3-I, consistent with increased autophagy (FIG. 2a).
Autophagy induction was measured by LC3-II/LC3-I Ratios on Western Blot (standard method for autophagy induction) (FIG. 18A-C). Drugs were applied to primary human RPE culture for 24 hours.

[3] = system: primary human fetal RPE (hfRPE) culture; assay: Autophagy induction by LC3 puncta formation (immunocytochemistry); type: cell-based; conditions: 24 hours exposure
Method: as §1
Autophagy induction was confirmed by assaying the formation of LC3-positive puncta (autophagosomes) by immunocytochemistry [Ref. 44; incorporated by reference in its entirety]. Puncta formation was quantified in automated/unbiased fashion using a customized macro in the Fiji/ImageJ platform [Ref. 43; incorporated by reference in its entirety].
Autophagy induction was measured by LC3 puncta on immunocytochemistry (standard method for autophagy induction) (FIG. 19). Drugs applied to primary human RPE culture for 24 hours.

hfRPE = type: cell-based, human
Method: Whole mounted Transwells (in duplicate) are photographed.
(§2) To evaluate the safety of D4476 and FLBZ, trans-epithelial electrical resistance (TEER) was measured, a measure of tight-junction integrity, in RPE cultures after prolonged exposure to each compound. As well-formed tight-junctions require myriad cell processes to be optimally coordinated, assessing TEER provides an easily measurable, ongoing, and noninvasive marker for general RPE cell health [Ref. 45; incorporated by reference in its entirety]. […] Lactate dehydrogenase (LDH) release, a combined marker of necrotic and late-stage apoptotic cell death [Refs. 47,48; incorporated by reference in their entireties], was reduced compared to vehicle for all four verified RPE autophagy inducers (FIG. 3b). Exposure of RPE cultures to the oxidant tert-butyl hydroperoxide confirmed the ability of the assay to detect cell death (FIG. 10).

primary hfRPE culture = assay: Trans-epithelial electrical resistance (TEER), tight-junction integrity; type: cell-based; conditions: TEER measured after 20 FLBZ feedings, after UAM accumulation
Method: TEER and cell death were measured [Ref 51; incorporated by reference in its entirety]. For cell death assays, maximum possible LDH release per Transwell was measured immediately after 2 μL of the final experimental supernate was taken. The Transwell and supernate was then treated with 0.2% Triton X-100 for 15 minutes at 37° C. followed by collection of an additional 2 μL of supernate. Each experimental LDH release value was first normalized to total LDH release from the vehicle condition. Additionally, all TEER and LDH release measurements were normalized to the vehicle group at the zero-hour timepoint.
as §2
Transepithelial Electrical Resistance (TEER) was tested (FIGS. 16 and 17). TEER is a sensitive measure of toxicity (lower the TEER, the more toxic the drug is). Drugs were added daily and measurements made daily for at least 4-8 days.

In the case of `COC(=O)Nc1nc2cc(C(=O)c3ccc(F)cc3)ccc2[nH]1` [FLBZ, Flubendazole], the “Autophagy induction in eyecups (LC3II/LC3I ratio)” value (RPE from mouse eyecups; mouse RPE/choroid eyecup, Torin 1-5 uM, FLBZ 12-60 uM) is reported as “induces autophagy well”, the “Autophagy flux in eyecups: LC3-II/LC3-I ratio with vs without ammonium chloride” value (RPE from mouse eyecups; mouse eyecups, FLBZ 60 uM) is reported as “higher LC3-II/LC3-I ratio with ammonium chloride than without ammonium chloride” and the “Autophagy flux: LC3-II/LC3-I ratio after NH4Cl” value [1] is reported as “induces autophagy flux”. The “LC3-II/LC3-I ratio (autophagy induction)” value [2] was “Induction of autophagy”, the “LC3 puncta formation (autophagy induction)” value [3] was “induced autophagy” and the RPE pigmentation (hfRPE) was “preserved pigmentation”. For the same compound, the “Cell health by tight-junction integrity (TEER) in cultures with established UAM” value (primary hfRPE culture) was “improved cell health”.
